Experimental data as given in patent US11590109B2 (priority 2016, dated 2023).

Legend:
[1] = system: H3N2 (influenza virus); test: microbe, parasite or virus in culture; settings: Influenza A virus, H3N2, MDCK
[2] = system: H1N1 (influenza virus); test: microbe, parasite or virus in culture; settings: Influenza A virus, H1N1, MDCK
[3] = system: H3N2 (influenza virus); settings: H3N2 in host cell MDCK
[4] = system: H1N1 (influenza virus); settings: H1N1 in host cell MDCK
[5] = in vitro; settings: dog
[6] = system: H7N9 (influenza virus); test: microbe, parasite or virus in culture; settings: Influenza A virus, H7N9, MDCK
[7] = system: Dengue Virus 2 (type 2 dengue virus); test: Inhibition of viral replication (CPE) at cellular level, Dengue Virus 2 in Vero; type: cell-based; settings: Dengue Virus 2 in host cell Vero
Excerpt: Activity Test for Inhibition of Viral Replication at Cellular Level […]
The present inventors tested inhibitory effects of the compound of the present invention on cytopathic effects (CPE) caused by viral infection on mammalian cells.
Half-inhibitory concentration IC50 and half toxic concentration TC50 of the compound against Dengue Virus 2 (type 2 dengue virus) in host cell Vero (African green monkey kidney cell).

[8] = Determination of TC50 (half toxicity concentration) in RD cells; type: cell-based; settings: human, host cell RD, EV71 table
[9] = system: EV71 (hand-foot-and-mouth virus); settings: EV71 in host cell RD
[10] = in vitro; settings: African green monkey, TC50, host cell Vero
[11] = system: EV71 (hand-foot-and-mouth virus); test: microbe, parasite or virus in culture; settings: Enterovirus A
[12] = system: RSV (human respiratory syncytial virus); test: Inhibition of viral replication (CPE) at cellular level, RSV in Vero
[13] = system: Zika Virus; test: Inhibition of viral replication (CPE) at cellular level, Zika Virus in Vero
[14] = TC50, host cell MDCK, H1N1 table
[15] = TC50, host cell MDCK, H3N2 table

| SMILES | IC50 ([1]; H3N2 in host cell MDCK, CPE) | IC50 ([2]; H1N1 in host cell MDCK, CPE) | SI (TC50/IC50) [3] | SI (TC50/IC50) [4] | CC50 [5, 14] | CC50 [5, 15] | also measured |
| --- | --- | --- | --- | --- | --- | --- | --- |
| O=C(O)c1ccccc1/C=N/Nc1nc(-c2ccc3ccccc3c2)cs1 [Compound 56, (E)-2-((2-(4-(naphthalen-2-yl)thiazol-2-yl)hydrazono)methyl)benzoic Acid] | 549 µM | 2310 µM | – | – | – | – | – |
| CN(/N=C/c1cc(N)c(F)cc1C(=O)O)c1nc(-c2ccccc2Cl)cs1 [Compound 25] | 742 µM | 485 µM | – | – | – | – | – |
| CCCN(/N=C/c1ccccc1C(=O)O)c1nc(-c2ccccc2Cl)cs1 [Compound 3, (E)-4-(2-chlorophenyl)-2-[1-propyl-2-(2-carboxybenzylidene)hydrazino]thiazole] | 25 µM | 12.3 µM | 2.08 | 7 | 86 µM | 52 µM | – |
| O=C(O)c1ccccc1/C=N/N(CCO)c1nc(-c2ccccc2Cl)cs1 [Compound 7] | 248 µM | 221 µM | 0.5 | 1.6 | 355 µM | 124 µM | – |
| Cc1ccc(/C=N/N(C)c2nc(-c3ccccc3)c(C)s2)c(C(=O)O)c1 [Compound 11, (E)-5-methyl-4-phenyl-2-[1-methyl-2-(4-methyl-2-carboxybenzylidene)hydrazino]thiazole] | 86 µM | 5.1 µM | 2.72 | 47 | 241 µM | 234 µM | CC50 ([5]; TC50): 54 µM; IC50 [6]: 14 µM |
| CCc1sc(N/N=C/c2ccccc2C(=O)O)nc1-c1ccccc1Cl [Compound 14, (E)-5-ethyl-4-(2-chlorophenyl)-2-(2-carboxylbenzylidenehydrazino)thiazole] | 550 µM | 41 µM | 0.16 | 2.1 | 88 µM | 91 µM | – |
| COc1cccc(-c2csc(N/N=C/c3ccccc3C(=O)O)n2)c1 [Compound 52, (E)-2-((2-(4-(3-methoxyphenyl)thiazol-2-yl)hydrazono)methyl)benzoic Acid] | 147 µM | 1240 µM | – | – | – | – | – |
| CCCC(C)N(/N=C/c1ccccc1C(=O)O)c1nc(-c2ccccc2Cl)c(C)s1 (stereo not drawn) [Compound 22, (E)-5-methyl-4-(2-chlorophenyl)-2-[1-(2-amyl)-2-(2-carboxybenzylidene)hydrazino]thiazole] | 248 µM | 55 µM | 1.6 | 2.7 | 148 µM | 415 µM | – |
| CN(/N=C/c1cc(O)c(F)cc1C(=O)O)c1nc(-c2ccccc2Cl)cs1 [Compound 24] | 152 µM | 325 µM | – | – | – | – | – |
| CC(C)N(/N=C/c1ccccc1C(=O)O)c1nc(-c2ccccc2Cl)cs1 [Compound 4, (E)-4-(2-chlorophenyl)-2-[1-isopropyl-2-(2-carboxybenzylidene)hydrazino]thiazole] | 112 µM | 2.6 µM | 0.31 | 8.8 | 23 µM | 35 µM | – |
| Cc1ccc(-c2csc(N/N=C/c3ccccc3C(=O)O)n2)cc1 [Compound 54, (E)-2-((2-(4-(p-tolyl)thiazol-2-yl)hydrazono)methyl)benzoic Acid] | 326 µM | 112 µM | – | – | – | – | – |
| CN(/N=C/c1ccccc1C(=O)O)c1nc(-c2cc(Cl)ccc2Cl)cs1 [Compound 19, (E)-4-(2,5-dichlorophenyl)-2-[1-methyl-2-(2-carboxybenzylidene)hydrazino]thiazole] | 0.9 µM | 0.56 µM | 47.8 | 46 | 26 µM | 43 µM | – |
| CN(/N=C/c1cc(F)c(F)cc1C(=O)O)c1nc(-c2ccccc2Cl)cs1 [Compound 23] | – | 0.39 µM | – | 223 | 87 µM | – | CC50 ([5]; TC50): 54 µM; IC50 [6]: 0.35 µM |
| CN(/N=C/c1ccccc1C(=O)O)c1nc(-c2cccc(Cl)c2)cs1 [Compound 21, (E)-4-(3-chlorophenyl)-2-[1-methyl-2-(2-carboxybenzylidene)hydrazino]thiazole] | 2.5 µM | 5.4 µM | 19.6 | 7.6 | 41 µM | 49 µM | – |
| Cc1sc(N(C)/N=C/c2ccccc2C(=O)O)nc1-c1ccccc1Cl [Compound 13] | 114 µM | 65 µM | 3.27 | 1.3 | 87 µM | 373 µM | – |
| O=C(O)c1c(F)cccc1/C=N/Nc1nc(-c2ccccc2Cl)cs1 [Compound 58, (E)-2-((2-(4-(2-chlorophenyl)thiazol-2-yl)hydrazono)methyl)-6-fluorobenzoic Acid] | 365 µM | 5.6 µM | – | 45 | 254 µM | – | – |
| CCC(C)N(/N=C/c1ccccc1C(=O)O)c1nc(-c2ccccc2Cl)cs1 (stereo not drawn) [Compound 5, (E)-4-(2-chlorophenyl)-2-[1-(2-butyl)-2-(2-carboxybenzylidene)hydrazino]thiazole] | 243 µM | 52 µM | 0.37 | 1.3 | 68 µM | 89 µM | – |
| CN(/N=C/c1ccccc1C(=O)O)c1nc(-c2ccccc2)cs1 [Compound 20, (E)-4-phenyl-2-[1-methyl-2-(2-carboxybenzylidene)hydrazino]thiazole] | 5.2 µM | 2.5 µM | 11 | 22.8 | 57 µM | 57 µM | – |
| Cc1sc(N/N=C/c2ccccc2C(=O)O)nc1-c1ccccc1 [Compound 17, (E)-5-methyl-4-phenyl-2-(2-carboxylbenzylidenehydrazino)thiazole] | 1.5 µM | 8.1 µM | 62.6 | 7 | 561 µM | 94 µM | – |
| O=C(O)c1ccccc1/C=N/Nc1nc(-c2ccc(-c3ccccc3)cc2)cs1 [Compound 57, (E)-2-((2-(4-(biphenyl-4-yl)thiazol-2-yl)hydrazono)methyl)benzoic Acid] | 4430 µM | 1290 µM | – | – | – | – | – |
| O=C(O)c1ccccc1/C=N/Nc1nc(-c2cc(Cl)ccc2Cl)cs1 [Compound 55, (E)-2-((2-(4-(2,5-dichlorophenyl)thiazol-2-yl)hydrazono)methyl)benzoic Acid] | – | – | 45.6 | 50 | – | – | SI (TC50/IC50) [7]: 110; IC50 ([7]; CPE): 0.63 µM; CC50 [8]: 3.1 µM; SI (TC50/IC50) [9]: 6; CC50 ([5]; TC50): 547 µM; CC50 ([10]; Dengue Virus 2 table): 69 µM; CC50 ([10]; RSV table): 154 µM; CC50 ([10]; Zika Virus table): 68 µM; IC50 [1]: 12 µM; IC50 [2]: 8.2 µM; IC50 [6]: 6.9 µM; IC50 [11]: 0.51 µM; SI (TC50/IC50) ([12]; RSV in host cell Vero): 19; IC50 ([12]; human respiratory syncytial virus, Vero): 8.2 µM; SI (TC50/IC50) ([13]; Zika Virus in host cell Vero): 206; IC50 ([13]; Zika virus, Vero): 0.33 µM |
| Cc1sc(N/N=C/c2ccccc2C(=O)O)nc1-c1ccccc1Cl [Compound 15, (E)-5-methyl-4-(2-chlorophenyl)-2-(2-carboxylbenzylidenehydrazino)thiazole] | 351 µM | 124 µM | – | 3.3 | 412 µM | 88 µM | – |
| O=C(O)c1ccccc1/C=N/Nc1nc(-c2ccccc2)cs1 [Compound 18, (E)-4-phenyl-2-(2-carboxybenzylidenehydrazino)thiazole] | 45 µM | 10.2 µM | 3.3 | 12 | 124 µM | 148 µM | – |
| NC(=O)c1cccc(-c2csc(N/N=C/c3ccccc3C(=O)O)n2)c1 [Compound 53, (E)-2-((2-(4-(3-aminoformylphenyl)thiazol-2-yl)hydrazono)methyl)benzoic Acid] | 216 µM | 781 µM | – | – | – | – | – |
| CCCC(C)N(/N=C/c1ccccc1C(=O)O)c1nc(-c2ccccc2Cl)cs1 (stereo not drawn) [Compound 6, (E)-4-(2-chlorophenyl)-2-[1-(2-amyl)-2-(2-carboxybenzylidene)hydrazino]thiazole] | 554 µM | 124 µM | 0.18 | 2 | 451 µM | 97 µM | – |
